{"source": "ChEMBL document CHEMBL5465560", "about": "“Selectivity Literature for EUbOPEN Chemogenomic Library” (2024)", "key": {"[1]": {"molecular_target": "Serine/threonine-protein kinase B-raf (Homo sapiens) (UniProt P15056)", "sequence (P15056 whole entry)": "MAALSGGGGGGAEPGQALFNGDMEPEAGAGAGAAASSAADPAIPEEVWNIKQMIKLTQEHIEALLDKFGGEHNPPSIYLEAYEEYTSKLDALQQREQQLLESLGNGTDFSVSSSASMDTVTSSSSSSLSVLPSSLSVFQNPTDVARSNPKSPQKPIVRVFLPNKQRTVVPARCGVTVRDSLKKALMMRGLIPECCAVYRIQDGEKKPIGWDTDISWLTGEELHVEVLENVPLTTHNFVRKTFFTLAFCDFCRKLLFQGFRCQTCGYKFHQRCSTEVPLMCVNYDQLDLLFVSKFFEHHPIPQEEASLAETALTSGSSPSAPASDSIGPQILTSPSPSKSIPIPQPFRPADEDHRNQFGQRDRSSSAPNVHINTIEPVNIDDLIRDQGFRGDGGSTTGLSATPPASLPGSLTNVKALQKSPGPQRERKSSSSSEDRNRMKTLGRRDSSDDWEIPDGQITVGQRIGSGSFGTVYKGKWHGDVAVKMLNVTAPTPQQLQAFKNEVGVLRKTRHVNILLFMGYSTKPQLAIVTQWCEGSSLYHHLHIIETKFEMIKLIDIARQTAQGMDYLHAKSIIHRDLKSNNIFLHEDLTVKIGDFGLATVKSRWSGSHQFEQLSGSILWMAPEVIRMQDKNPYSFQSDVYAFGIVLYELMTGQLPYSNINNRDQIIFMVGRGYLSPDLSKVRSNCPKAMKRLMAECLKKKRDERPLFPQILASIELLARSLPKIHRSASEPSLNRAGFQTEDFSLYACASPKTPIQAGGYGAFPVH", "assay": "(§1) Selectivity interaction (KinomeScan (DiscoverX)) EUB0000229b BRAF", "settings": "at 10 µM"}, "[2]": {"tested_on": "Serine/threonine-protein kinase B-raf (Homo sapiens), P15056 [V600E]", "sequence (P15056 whole entry V600E)": "as the sequence (P15056 whole entry) above, with V600E counted along it", "assay": "as §1", "settings": "at 1 µM"}, "[3]": {"molecular_target": "G protein-coupled receptor kinase 5 (Homo sapiens, UniProt P34947)", "sequence (P34947 whole entry, looked up)": "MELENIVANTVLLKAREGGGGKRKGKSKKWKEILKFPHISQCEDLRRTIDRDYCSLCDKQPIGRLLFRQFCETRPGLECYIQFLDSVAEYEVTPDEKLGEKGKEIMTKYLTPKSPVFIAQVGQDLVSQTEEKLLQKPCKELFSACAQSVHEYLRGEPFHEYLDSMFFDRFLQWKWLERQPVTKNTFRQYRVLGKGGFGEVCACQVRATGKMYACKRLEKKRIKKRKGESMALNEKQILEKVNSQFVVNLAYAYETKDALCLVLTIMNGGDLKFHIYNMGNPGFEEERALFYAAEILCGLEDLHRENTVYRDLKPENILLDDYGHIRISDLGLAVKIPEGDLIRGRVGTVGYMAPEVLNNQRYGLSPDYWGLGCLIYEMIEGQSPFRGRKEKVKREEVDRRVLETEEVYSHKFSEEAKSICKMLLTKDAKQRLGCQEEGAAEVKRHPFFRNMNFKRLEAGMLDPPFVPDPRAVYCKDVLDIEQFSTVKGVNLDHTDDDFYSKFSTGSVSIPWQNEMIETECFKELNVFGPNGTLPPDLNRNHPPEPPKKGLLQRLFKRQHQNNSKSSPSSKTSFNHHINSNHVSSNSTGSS", "assay": "Selectivity interaction (Upstate Kinase Profiler service (Millipore)) EUB0000056c GRK5", "settings": "at 1 µM"}, "[4]": {"molecular_target": "T1, Inhibitor of nuclear factor kappa-B kinase subunit alpha (Homo sapiens) (UniProt O15111)", "T1 sequence (whole entry)": "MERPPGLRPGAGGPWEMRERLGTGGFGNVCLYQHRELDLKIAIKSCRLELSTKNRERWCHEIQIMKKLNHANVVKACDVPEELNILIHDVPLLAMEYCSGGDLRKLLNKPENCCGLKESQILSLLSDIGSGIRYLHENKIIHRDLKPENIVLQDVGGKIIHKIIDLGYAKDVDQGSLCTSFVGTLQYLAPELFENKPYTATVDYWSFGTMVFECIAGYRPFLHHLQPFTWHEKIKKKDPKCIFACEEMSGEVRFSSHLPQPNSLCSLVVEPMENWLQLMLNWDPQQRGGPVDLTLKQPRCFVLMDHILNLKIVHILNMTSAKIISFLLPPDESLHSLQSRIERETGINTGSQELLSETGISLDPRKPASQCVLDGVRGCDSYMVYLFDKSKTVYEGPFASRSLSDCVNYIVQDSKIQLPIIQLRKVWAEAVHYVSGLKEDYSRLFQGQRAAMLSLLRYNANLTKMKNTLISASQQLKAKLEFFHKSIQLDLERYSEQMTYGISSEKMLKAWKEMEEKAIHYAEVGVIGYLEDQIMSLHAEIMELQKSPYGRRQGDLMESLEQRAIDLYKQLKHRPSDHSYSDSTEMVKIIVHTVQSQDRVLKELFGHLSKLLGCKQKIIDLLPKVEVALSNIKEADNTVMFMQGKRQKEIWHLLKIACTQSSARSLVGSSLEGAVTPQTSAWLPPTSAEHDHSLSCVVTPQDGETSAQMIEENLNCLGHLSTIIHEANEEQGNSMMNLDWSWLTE", "settings": "at 1 µM"}, "[5]": {"molecular_target": "Serine/threonine-protein kinase 24 (Homo sapiens) (UniProt Q9Y6E0)", "assay": "Selectivity interaction (Kinase panel (DSF assay)) EUB0001559a STK24"}, "[6]": {"molecular_target": "T2, Aurora kinase A (Homo sapiens) (UniProt O14965)", "T2 sequence (whole entry)": "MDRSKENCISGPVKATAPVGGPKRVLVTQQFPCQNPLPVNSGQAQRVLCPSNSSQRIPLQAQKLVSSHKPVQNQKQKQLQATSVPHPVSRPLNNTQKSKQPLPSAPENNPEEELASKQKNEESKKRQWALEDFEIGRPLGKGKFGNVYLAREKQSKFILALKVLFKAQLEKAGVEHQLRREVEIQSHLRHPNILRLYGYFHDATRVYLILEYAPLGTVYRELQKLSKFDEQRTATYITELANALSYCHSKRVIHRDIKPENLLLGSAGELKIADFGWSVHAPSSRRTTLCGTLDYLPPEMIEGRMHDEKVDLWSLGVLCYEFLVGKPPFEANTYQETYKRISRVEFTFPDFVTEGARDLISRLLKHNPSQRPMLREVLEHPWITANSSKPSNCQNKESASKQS", "assay": "Selectivity interaction (KinomeScan (DiscoverX)) EUB0001079a STK6", "settings": "at 1 µM"}, "[7]": {"molecular_target": "Calcium/calmodulin-dependent protein kinase type II subunit delta (Homo sapiens) (UniProt Q13557)", "sequence (Q13557 whole entry)": "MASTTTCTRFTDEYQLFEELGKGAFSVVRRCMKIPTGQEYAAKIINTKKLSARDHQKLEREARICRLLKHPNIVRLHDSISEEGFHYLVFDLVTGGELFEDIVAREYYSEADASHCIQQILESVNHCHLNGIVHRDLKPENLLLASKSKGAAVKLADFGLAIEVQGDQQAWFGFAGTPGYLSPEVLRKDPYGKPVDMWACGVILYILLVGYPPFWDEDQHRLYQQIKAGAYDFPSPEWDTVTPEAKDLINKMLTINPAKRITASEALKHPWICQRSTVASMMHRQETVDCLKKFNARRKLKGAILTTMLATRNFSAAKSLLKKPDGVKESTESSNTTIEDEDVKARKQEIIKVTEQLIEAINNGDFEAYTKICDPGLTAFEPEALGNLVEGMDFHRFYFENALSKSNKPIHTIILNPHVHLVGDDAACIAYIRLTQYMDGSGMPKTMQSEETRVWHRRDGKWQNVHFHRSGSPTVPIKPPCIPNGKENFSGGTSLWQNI", "assay": "Selectivity interaction (ActivX KiNativ screen (kinase selectivity in THP-1 cell lysates)) EUB0000639a CAMK2D", "type": "subcellular", "settings": "lysate"}, "[8]": {"molecular_target": "Tyrosine-protein kinase JAK2 (Homo sapiens, UniProt O60674)", "assay": "Selectivity interaction (Kinase panel (Invitrogen)) EUB0000639a JAK2", "settings": "at 200 nM"}, "[9]": {"molecular_target": "MAP/microtubule affinity-regulating kinase 3 (Homo sapiens) (UniProt P27448)", "sequence (P27448 whole entry, looked up)": "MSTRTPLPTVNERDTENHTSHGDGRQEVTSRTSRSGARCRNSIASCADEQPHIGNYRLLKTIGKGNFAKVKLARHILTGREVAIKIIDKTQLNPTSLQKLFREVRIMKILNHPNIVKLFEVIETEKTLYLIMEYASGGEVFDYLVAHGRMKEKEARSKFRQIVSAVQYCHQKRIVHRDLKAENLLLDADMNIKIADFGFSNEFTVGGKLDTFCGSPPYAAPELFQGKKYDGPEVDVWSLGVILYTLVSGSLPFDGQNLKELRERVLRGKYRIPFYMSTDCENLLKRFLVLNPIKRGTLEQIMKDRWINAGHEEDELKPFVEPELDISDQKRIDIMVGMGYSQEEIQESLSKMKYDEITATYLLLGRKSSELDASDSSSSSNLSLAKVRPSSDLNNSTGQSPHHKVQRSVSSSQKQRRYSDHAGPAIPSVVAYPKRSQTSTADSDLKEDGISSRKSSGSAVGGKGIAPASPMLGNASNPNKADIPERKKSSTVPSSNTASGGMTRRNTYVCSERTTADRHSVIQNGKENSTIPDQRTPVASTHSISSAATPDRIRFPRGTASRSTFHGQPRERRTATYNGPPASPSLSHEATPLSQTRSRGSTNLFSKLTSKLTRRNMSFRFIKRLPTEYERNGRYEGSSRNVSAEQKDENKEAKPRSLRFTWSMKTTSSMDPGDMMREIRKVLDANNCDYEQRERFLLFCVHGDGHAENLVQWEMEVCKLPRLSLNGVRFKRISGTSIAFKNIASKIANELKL", "assay": "Selectivity interaction (ActivX KiNativ screen (kinase selectivity in THP-1 cell lysates)) EUB0000639a MARK3", "type": "subcellular", "settings": "lysate, at 0.04 µM"}, "[10]": {"molecular_target": "Serine/threonine-protein kinase 26 (Homo sapiens, UniProt Q9P289)", "assay": "Selectivity interaction (ActivX KiNativ screen (kinase selectivity in THP-1 cell lysates)) EUB0000639a STK26", "type": "subcellular", "settings": "lysate, at 1 µM"}, "[11]": {"molecular_target": "Cannabinoid receptor 2 (Homo sapiens) (UniProt P34972)", "sequence (P34972 whole entry)": "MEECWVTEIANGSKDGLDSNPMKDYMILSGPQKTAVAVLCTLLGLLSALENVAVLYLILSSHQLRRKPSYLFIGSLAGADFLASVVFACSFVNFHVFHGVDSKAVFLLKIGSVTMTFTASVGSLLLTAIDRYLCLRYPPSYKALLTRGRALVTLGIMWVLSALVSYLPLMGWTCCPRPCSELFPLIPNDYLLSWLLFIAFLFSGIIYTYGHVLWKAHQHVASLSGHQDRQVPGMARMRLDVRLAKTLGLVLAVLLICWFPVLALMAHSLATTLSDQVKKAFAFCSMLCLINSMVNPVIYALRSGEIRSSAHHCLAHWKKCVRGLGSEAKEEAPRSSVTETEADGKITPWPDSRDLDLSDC", "assay": "Selectivity interaction (Panel of kinases, GPCRs, ion channels and transporters (enzymatic assay)) EUB0000223bCl CNR2"}, "[12]": {"tested_on": "Fibroblast growth factor receptor 3 (Homo sapiens), P22607 [G697C]", "assay": "(§2) Selectivity interaction (KinomeScan (DiscoverX)) EUB0001049a FGFR3", "settings": "at 1 µM"}, "[13]": {"molecular_target": "Fibroblast growth factor receptor 3 (Homo sapiens, UniProt P22607)", "sequence (P22607 23-806 limits assumed)": "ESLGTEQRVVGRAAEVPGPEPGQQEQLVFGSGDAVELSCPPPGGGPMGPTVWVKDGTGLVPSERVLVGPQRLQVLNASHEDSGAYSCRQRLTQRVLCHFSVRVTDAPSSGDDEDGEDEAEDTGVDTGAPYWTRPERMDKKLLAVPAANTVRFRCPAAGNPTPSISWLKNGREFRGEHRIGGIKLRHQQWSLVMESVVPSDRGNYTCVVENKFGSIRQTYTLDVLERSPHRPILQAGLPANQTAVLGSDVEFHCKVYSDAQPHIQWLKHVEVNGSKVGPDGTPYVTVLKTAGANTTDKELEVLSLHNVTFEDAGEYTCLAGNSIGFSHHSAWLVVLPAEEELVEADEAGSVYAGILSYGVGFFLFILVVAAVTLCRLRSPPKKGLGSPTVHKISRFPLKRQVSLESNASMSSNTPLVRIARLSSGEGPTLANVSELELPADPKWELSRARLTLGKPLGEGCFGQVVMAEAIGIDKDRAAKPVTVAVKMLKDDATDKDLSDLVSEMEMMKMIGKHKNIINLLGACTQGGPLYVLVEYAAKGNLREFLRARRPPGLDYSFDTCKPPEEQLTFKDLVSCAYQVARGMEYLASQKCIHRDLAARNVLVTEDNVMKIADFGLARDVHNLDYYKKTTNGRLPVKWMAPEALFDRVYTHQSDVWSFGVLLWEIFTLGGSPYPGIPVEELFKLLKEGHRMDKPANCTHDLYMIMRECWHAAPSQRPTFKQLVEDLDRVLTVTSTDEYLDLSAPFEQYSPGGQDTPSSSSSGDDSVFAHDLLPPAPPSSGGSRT", "assay": "as §2", "settings": "at 1 µM"}, "[14]": {"molecular_target": "Casein kinase I isoform gamma-1 (Homo sapiens) (UniProt Q9HCP0)", "assay": "Selectivity interaction (KinomeScan (DiscoverX)) EUB0000595a CSNK1G1", "settings": "at 10 µM"}, "[15]": {"molecular_target": "Bone morphogenetic protein receptor type-1B (Homo sapiens, UniProt O00238)", "sequence (O00238 whole entry)": "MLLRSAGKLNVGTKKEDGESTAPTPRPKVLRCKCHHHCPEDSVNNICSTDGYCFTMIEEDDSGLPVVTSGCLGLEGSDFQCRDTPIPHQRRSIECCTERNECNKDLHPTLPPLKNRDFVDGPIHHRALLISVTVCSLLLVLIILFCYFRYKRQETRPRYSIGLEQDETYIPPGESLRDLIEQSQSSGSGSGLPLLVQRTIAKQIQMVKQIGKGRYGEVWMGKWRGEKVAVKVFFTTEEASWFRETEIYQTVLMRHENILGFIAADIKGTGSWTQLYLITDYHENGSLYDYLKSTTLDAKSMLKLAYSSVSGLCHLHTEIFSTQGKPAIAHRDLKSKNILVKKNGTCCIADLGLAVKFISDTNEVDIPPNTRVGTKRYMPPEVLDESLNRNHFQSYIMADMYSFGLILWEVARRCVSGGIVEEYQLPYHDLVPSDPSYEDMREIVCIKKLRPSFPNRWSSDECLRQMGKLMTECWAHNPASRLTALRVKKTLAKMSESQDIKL", "assay": "Selectivity interaction (KinomeScan (DiscoverX)) EUB0000618a BMPR1B", "settings": "at 10 µM"}, "[16]": {"molecular_target": "MAP kinase-activated protein kinase 2 (Homo sapiens, UniProt P49137)", "assay": "Selectivity interaction (KinomeScan (DiscoverX)) EUB0000618a MAPKAPK2", "settings": "at 10 µM"}, "[17]": {"molecular_target": "Calcium/calmodulin-dependent protein kinase type 1 (Homo sapiens) (UniProt Q14012)", "assay": "Selectivity interaction (Ambit KINOMEscan and KiNATiv profiling in Jurkat cells) EUB0000090b CAMK1", "type": "cell-based", "settings": "at 1 µM"}, "[18]": {"molecular_target": "Cyclin-dependent kinase 17 (Homo sapiens) (UniProt Q00537)", "assay": "Selectivity interaction (Ambit KINOMEscan and KiNATiv profiling in Jurkat cells) EUB0000090b CDK17", "type": "cell-based", "settings": "at 1 µM"}, "[19]": {"molecular_target": "Protein kinase C theta type (Homo sapiens, UniProt Q04759)", "sequence (Q04759 whole entry, looked up)": "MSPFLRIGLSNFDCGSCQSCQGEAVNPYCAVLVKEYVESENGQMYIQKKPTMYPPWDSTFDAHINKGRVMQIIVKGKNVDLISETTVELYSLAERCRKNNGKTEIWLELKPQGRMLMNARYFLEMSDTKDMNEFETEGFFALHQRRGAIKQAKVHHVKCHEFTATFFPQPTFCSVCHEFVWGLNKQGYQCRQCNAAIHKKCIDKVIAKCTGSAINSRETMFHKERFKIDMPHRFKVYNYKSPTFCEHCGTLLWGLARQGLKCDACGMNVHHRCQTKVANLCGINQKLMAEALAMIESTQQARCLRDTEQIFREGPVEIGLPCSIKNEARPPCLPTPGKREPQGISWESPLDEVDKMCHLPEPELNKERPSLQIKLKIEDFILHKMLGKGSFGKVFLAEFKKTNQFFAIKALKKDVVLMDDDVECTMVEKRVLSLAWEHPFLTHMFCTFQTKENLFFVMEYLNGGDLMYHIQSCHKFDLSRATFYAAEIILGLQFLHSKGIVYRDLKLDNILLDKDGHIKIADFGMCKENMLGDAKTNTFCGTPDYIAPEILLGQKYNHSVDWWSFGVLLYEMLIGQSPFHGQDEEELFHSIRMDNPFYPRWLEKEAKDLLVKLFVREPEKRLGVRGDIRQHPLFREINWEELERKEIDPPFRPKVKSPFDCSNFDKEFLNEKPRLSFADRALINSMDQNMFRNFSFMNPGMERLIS", "assay": "Selectivity interaction (Ambit KINOMEscan and KiNATiv profiling in Jurkat cells) EUB0000090b PRKCQ", "type": "cell-based", "settings": "at 1 µM"}}, "data": [{"smiles": "COc1cc(N(C)c2ccnc3ccc(C(F)(F)F)cc23)cc(OC)c1OC", "values": [{"measurement": "% binding", "setting": "[1]", "value": 71, "unit": "%"}, {"measurement": "% binding", "setting": "[2]", "value": 78, "unit": "%"}]}, {"smiles": "Cc1ccc(-c2ccc3c(ccc4sc5c(c43)NC[C@@H](C)NC5=O)n2)cn1", "values": [{"measurement": "% of inhibition", "setting": "[3]", "value": -23, "unit": "%"}, {"measurement": "% of inhibition", "setting": "[4]", "value": -5, "unit": "%"}]}, {"smiles": "CN(C(=O)c1cnn2cccnc12)c1cc2c(cc1N1CCOCC1)C(=O)N(C[C@@H](F)C(C)(C)O)C2", "values": [{"measurement": "dTM", "setting": "[5]", "value": -0.3, "unit": "K"}]}, {"smiles": "Nc1cnc(N2CCc3cc(S(=O)(=O)Nc4c(F)cc(Cl)cc4F)cc(N4CCCC4=O)c32)nc1", "note": "[TP-020n]", "values": [{"measurement": "% of control", "setting": "[6]", "value": 100, "unit": "%"}]}, {"smiles": "CC[C@@H]1[C@H](F)C(=O)N[C@@H]1COc1nccc2cc(C(N)=O)c(OC)cc12", "note": "[ZIMLOVISERTIB]", "values": [{"measurement": "% of inhibition", "setting": "[7]; at 0.01 µM", "value": 14.2, "unit": "%"}, {"measurement": "% of inhibition", "setting": "[7]; at 0.04 µM", "value": 9.6, "unit": "%"}, {"measurement": "% of inhibition", "setting": "[7]; at 0.2 µM", "value": 16.3, "unit": "%"}, {"measurement": "% of inhibition", "setting": "[7]; at 1 µM", "value": 36.4, "unit": "%"}, {"measurement": "% of inhibition", "setting": "[7]; at 5 µM", "value": 61.2, "unit": "%"}, {"measurement": "% of inhibition", "setting": "[8]", "value": 15.4, "unit": "%"}, {"measurement": "% of inhibition", "setting": "[9]", "value": 9.1, "unit": "%"}, {"measurement": "% of inhibition", "setting": "[10]", "value": -9.2, "unit": "%"}]}, {"smiles": "COc1cc(C(=O)N2CC[C@@H](O)[C@@H](N)C2)cc2nc(-c3cc4ccccc4n3CC3CC3)n(C)c12", "values": [{"measurement": "pXC50", "setting": "[11]", "value": "< 4.5", "unit": "M"}]}, {"smiles": "COc1cc(Nc2nc(C)cc(-c3cnn4nc(OC)ccc34)n2)cc(C(F)(F)F)c1", "values": [{"measurement": "% of control", "setting": "[12]", "value": 96, "unit": "%"}, {"measurement": "% of control", "setting": "[13]", "value": 96, "unit": "%"}]}, {"smiles": "COCC(=O)NC/C=C/c1ccc2ncnc(Nc3ccc(Oc4ccc(C)nc4)c(C)c3)c2c1", "note": "[CP-724714]", "values": [{"measurement": "% of control", "setting": "[14]", "value": 100, "unit": "%"}]}, {"smiles": "O[C@H]1CC[C@H](Nc2ncc3nc(Nc4c(F)cc(F)cc4F)n([C@H]4CCOC4)c3n2)CC1", "values": [{"measurement": "% of control", "setting": "[15]", "value": 100, "unit": "%"}, {"measurement": "% of control", "setting": "[16]", "value": 71, "unit": "%"}]}, {"smiles": "CN(C)C/C=C/C(=O)Nc1ccc(C(=O)N2CCCC(Nc3ncc(Cl)c(-c4c[nH]c5ccccc45)n3)C2)cc1", "note": "(stereo not drawn)", "values": [{"measurement": "% of control", "setting": "[17]", "value": 93, "unit": "%"}, {"measurement": "% of control", "setting": "[18]", "value": 83, "unit": "%"}, {"measurement": "% of control", "setting": "[19]", "value": 100, "unit": "%"}]}]}
